Assay results published in the METLIN SMRT retention time set (Domingo-Almenara et al. 2019).

Test: gradient 5% acetonitrile 3 min, to 50% in 2 min, to 85% in 15 min, held 3 min, 100 µL/min
Conditions: column: Zorbax Extend-C18 2.1 x 50 mm; eluents: water / acetonitrile, 0.1% formic acid
How it was run: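 Using water and acetonitrile that each contained 0.1% formic acid, mixtures of ~100 pure standards were separated at 100 μL/min on a Zorbax Extend-C18 column (2.1 × 50 mm, 1.8 μm). The HPLC fed a quadrupole time-of-flight mass spectrometer working in positive and negative ionization mode, with dead and dwell volumes of 40 μL and 900 μL. Data were acquired over 3 months. Retention time was read from computationally picked adduct peaks after manual inspection of each.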

| RP-LC retention time [s] | Structure (SMILES) |
| --- | --- |
| 576 | CS(=O)(=O)N1CCN(CCNC(=O)Nc2cccc(C(F)(F)F)c2)CC1 |
| 738 | CCC(=O)Nc1ccc2c(c1)CN(C(=O)c1ccc(C)cc1)C(C(=O)N1CCCC1)C2 (stereo unspecified) |
| 703 | Cn1c(=O)c2ccn(CC(=O)NCc3cccc(Cl)c3)c2n(C)c1=O |
| 985 | CCCn1c(=O)sc2cc(S(=O)(=O)N3CCC(C(=O)N(C)Cc4ccccc4)CC3)ccc21 |
| 904 | O=C(Nc1nc(-c2cccc3ccccc23)cs1)c1ccncc1 |
| 858 | CCOc1ccccc1NC(=O)N1CCCC1c1nc(-c2cccc(C)c2)no1 (stereo unspecified) |
| 1220 | O=S(=O)(c1ccc(-c2noc(-c3ccccc3Br)n2)cc1)N1CCCC1 |
| 1000 | CCc1ccc(S(=O)(=O)N2CCC(C(=O)NCCc3csc(-c4cccs4)n3)CC2)cc1 |
| 686 | Cc1ccc(CNC(=O)c2cn3ccncc3n2)cc1 |
| 970 | Cc1ccc2c(c1)OCC(=O)N2Cc1nc(-c2ccc(F)cc2)no1 |
| 911 | COc1ccc(N2C(=O)C3N=NN(Cc4nc(-c5cccc(C)c5)no4)C3C2=O)cc1OC (stereo unspecified) |
| 1260 | Cc1ccc(S(=O)(=O)c2cnc(N3CCN(c4cccc(Cl)c4)CC3)nc2N)cc1C |
| 888 | CC1=C(c2ccc(C)cc2)S(=O)(=O)N=C1N1CCCN(C(=O)CC(C)(C)C)CC1 |
| 630 | O=C(NC1CCN(c2cc(-c3ccccc3)[nH]n2)C1)c1cccs1 (stereo unspecified) |
| 1130 | Clc1ccc(OCCSc2nnc(-c3ccc4c(c3)OCO4)o2)cc1 |
| 640 | Cc1ccc2c(c1)c(=O)c1c(n2C)CCN(CC(=O)Nc2ccccc2Cl)C1 |
| 825 | O=C(NCCc1cccs1)c1nc(Nc2ccc(F)cc2)c2ccccc2n1 |
| 865 | O=C([C@@H]1C[C@H](F)CN1S(=O)(=O)c1ccc(Br)cc1)N1CCCCC1 |
| 872 | Cc1ccc(C(C)NC(=O)c2cn(-c3ccc(NC(=O)CC(C)C)cn3)cn2)cc1 (stereo unspecified) |
| 1060 | Cc1ccc(Sc2nccnc2N2CCCC(C(=O)NCc3ccc4c(c3)OCO4)C2)cc1 (stereo unspecified) |
| 614 | O=C(NCc1cccs1)c1ccc(-c2cccnc2)nc1 |
| 949 | O=C(CN1C(=O)CCc2cc(Br)ccc21)N1CCN(c2ccc(F)cc2)CC1 |

| RP-LC retention time [s] | Structure (SMILES) |
| --- | --- |
| 1050 | COC1OC2COC(c3ccccc3)OC2C(=O)C1NC(=O)c1ccccc1 (stereo unspecified) |
| 892 | CCOC(=O)c1sc(NC(=O)c2cccs2)nc1C |
| 822 | CC(NC(=O)c1cccc2[nH]ccc12)C(=O)N1CCCc2ccccc21 (stereo unspecified) |
| 642 | COc1ccc(NC(=O)N2CCN(Cc3nc4ccccc4o3)CC2)cc1 |
| 1050 | C=CCn1c2ccccc2c2nnc(SCC(=O)Nc3nc(-c4ccccc4)cs3)nc21 |
| 725 | Cc1noc(-c2nn(C)c3c2CN(C(=O)c2ccccc2Br)CC3)n1 |
| 875 | CCOC(=O)C1CCN([C@H]2CS(=O)(=O)C[C@@H]2S(=O)(=O)c2ccc(C)cc2)CC1 |
| 978 | Cc1ccc(-n2cc(C(=O)Oc3cccnc3)c3ccccc3c2=O)cc1 |
| 1040 | CCOC(=O)c1cccc(Nc2c(-c3ccc(Br)cc3)nc3cnccn23)c1 |
| 702 | COc1cccc(CNC(=O)Nc2cccc(-c3ccc(N4CCCCC4)nn3)c2)c1 |
| 760 | COc1cccc(NC(=O)Cn2nc3cc(C)nc(N4CCCC4)n3c2=O)c1 |
| 686 | CCOCCCNC(=O)c1ncoc1-c1ccccc1C(=O)N1CCCC1 |
| 784 | CCc1noc(NC(C)=O)c1-c1ccc(C)c(S(=O)(=O)Nc2ccc3c(c2)OCCO3)c1 |
| 661 | COc1ccc(C2(C(=O)N3CC(n4c(C)cnc4-c4ccccc4)C3)CC2)cc1 |
| 737 | CC(=O)Nc1ccc(-c2noc(C3CCN(C(=O)c4ccc5cc[nH]c5c4)CC3)n2)cc1 |
| 563 | O=C(NCCCN1CCOCC1)c1ccc(-c2ccc(N3CCCCC3)nn2)cc1 |
| 753 | O=C(CN1CCC(c2nc(-c3cccs3)no2)CC1)Nc1ccccc1C(F)(F)F |
| 676 | Cc1ccc(F)c(NS(=O)(=O)c2cc(-c3[nH]ncc3C(=O)N(C)C)oc2C)c1 |
| 720 | CC(C)C(=O)Nc1ccc(C(=O)NCCNS(=O)(=O)c2ccc(F)c(Cl)c2)cc1 |
| 592 | CCOCCCNC(=O)C1Cn2cccc2C(=O)N1 (stereo unspecified) |
| 878 | CCn1cnc(S(=O)(=O)N2CCC(C(=O)N3CCN(c4cc(C)ccc4C)CC3)CC2)c1 |
| 627 | O=C(Cn1c(=O)n(C2CCCCC2)c2ncccc21)NCCN1CCOCC1 |

| RP-LC retention time [s] | Structure (SMILES) |
| --- | --- |
| 618 | Cc1cc(NC(=O)C2CCN(C(=O)c3snnc3C)CC2)no1 |
| 1180 | Cc1ccccc1NS(=O)(=O)c1cc(-c2cc(C(F)(F)F)on2)sc1C |
| 868 | Cc1ccc(NC(=O)C2CCCN2S(=O)(=O)c2cc3c(cc2Cl)NC(=O)CO3)c(C)c1 (stereo unspecified) |
| 1000 | Cc1ccc(-c2nc(NC(=O)c3sc(C)nc3C)sc2C)cc1 |
| 837 | N#Cc1ccc(NC(=O)Cn2cccc(-c3nc(-c4ccccc4)no3)c2=O)cc1 |
| 706 | CC(C)(C)NC(=O)NCC1CC(=O)N(c2ccc(Cl)cc2)C1 (stereo unspecified) |
| 687 | Cc1cn(C)c(CC(=O)NCc2ccc3c(c2)OCO3)c1C(=O)O |
| 587 | Cc1ccc(S(=O)Cc2ccc(C(=O)N3CCN(c4ccccn4)CC3)o2)cc1 (stereo unspecified) |
| 1050 | Cc1nn(C)c2nc(OC(C)C(=O)Nc3ccccc3F)cc(C(F)(F)F)c12 (stereo unspecified) |
| 951 | O=C1c2ccccc2C(=O)N1CCCCN(C(=O)c1cccs1)c1ccc(F)cc1F |
| 689 | O=C(CSc1ccc(N2CCCC(C(=O)NC3CC3)C2)nn1)Nc1cccc(Cl)c1 (stereo unspecified) |
| 784 | Nc1ccc(SCc2nnc(-c3cccc(F)c3)o2)cc1 |
| 712 | COc1ccc(NC(=O)N2CCC3(CC2)NC(=O)c2ccccc2O3)cc1 |
| 1020 | N#Cc1ncc(Cl)c2ccccc12 |
| 944 | CC1=C(c2ccc(Cl)cc2)S(=O)(=O)N=C1N1CCCN(C(=O)CC(C)(C)C)CC1 |
| 880 | Cc1ccccc1CNC(=O)CN1CCN(Cc2cccc(Cl)c2)C1=O |
| 725 | COc1ccccc1CNC(=O)C1CCCN(c2nnc(C)c3c(C)n(-c4ccccc4)nc23)C1 (stereo unspecified) |
| 610 | COCc1cn(C2CN(C(=O)c3ccc(OC)nc3)C2)nn1 |
| 620 | CCOC(=O)C1CCN(C(=O)Cn2c(N3CCOCC3)nc(C)cc2=O)CC1 |
| 819 | CN(CC(=O)O)S(=O)(=O)c1ccc(Cl)c(-c2nnc(-c3ccccc3)o2)c1 |
| 814 | CCC(C)NC(=O)Cn1cccc(-c2nc(-c3ccc(C)cc3)no2)c1=O (stereo unspecified) |
| 1130 | COc1ccc(C2Cn3nnc(-c4nc(-c5ccc(F)cc5)no4)c3CO2)cc1 (stereo unspecified) |
